Tests used:
CK1δ [1] = biological target: T1, CK1δ (Homo sapiens, UniProt P48730); assay: in vitro radiometric kinase assay ([…]-ATP, CK1 peptide substrate); format: biochemical
T1 construct: gene CSNK1D

CK1δ [2] = biological target: T1, CK1δ; assay: in vitro radiometric kinase assay ([…]-ATP, CK1 peptide substrate); CRBN-dependent CK1δ degradation in cells; format: biochemical

T1 sequence (P48730 whole entry): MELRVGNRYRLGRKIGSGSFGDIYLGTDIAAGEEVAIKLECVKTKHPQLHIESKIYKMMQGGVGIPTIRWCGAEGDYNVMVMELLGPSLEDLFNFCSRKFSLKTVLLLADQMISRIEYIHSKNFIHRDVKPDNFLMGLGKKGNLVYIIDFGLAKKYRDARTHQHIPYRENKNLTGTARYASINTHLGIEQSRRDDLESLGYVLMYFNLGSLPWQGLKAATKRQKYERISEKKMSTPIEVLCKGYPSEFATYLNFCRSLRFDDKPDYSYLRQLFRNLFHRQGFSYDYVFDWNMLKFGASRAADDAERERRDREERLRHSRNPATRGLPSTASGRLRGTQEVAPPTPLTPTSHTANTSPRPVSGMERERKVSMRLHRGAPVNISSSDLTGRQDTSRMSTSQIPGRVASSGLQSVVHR

| IC50 (CK1δ [1]) [µM] | IC50 (CK1δ [2]) [µM] | SMILES |
| --- | --- | --- |
| 3.43 |  | Nc1ccc(Cn2c(SCC(=O)Nc3nc4ccc(C(F)(F)F)cc4s3)nccc2=O)cc1 [I9] |
|  | 2.16 | O=C1CCC(N2C(=O)c3cccc(NCCCCCC(=O)Nc4ccc(Cn5c(SCC(=O)Nc6nc7ccc(C(F)(F)F)cc7s6)nccc5=O)cc4)c3C2=O)C(=O)N1 (stereo not shown) [P1d] |
| 1.96 |  | O=C1CCC(N2C(=O)c3cccc(OCCCOCCC(=O)Nc4ccc(Cn5c(SCC(=O)Nc6nc7ccc(C(F)(F)F)cc7s6)nccc5=O)cc4)c3C2=O)C(=O)N1 (stereo not shown) [P3d] |
| ~2.2 |  | O=C1CCC(N2C(=O)c3ccc(OCCCOCCC(=O)Nc4ccc(Cn5c(SCC(=O)Nc6nc7ccc(C(F)(F)F)cc7s6)nccc5=O)cc4)cc3C2=O)C(=O)N1 (stereo not shown) [P4d] |

Reference: article PMC12655757, “Design and Synthesis of Novel Candidate CK1δ Proteolysis Targeting Chimeras (PROTACs)” (Molecules, 2025)
